Data reported in article PMC7827085 (Pharmaceutics, 2021).
Read-outs that look alike come from different tables or passages of the source.

Columns and labels:
OATP2B1 [1] = test system: OATP2B1; parameters: method as in PMID 22541068; conditions: 20 µM ivermectin, different test substrate; cited from earlier work
ABCB1/MDR1/Pgp [2] = molecular target: T1, ABCB1/MDR1/Pgp (Homo sapiens, UniProt P08183); conditions: read-out: Estimated Transporter Inhibition IC50, ABCB1 vesicular assay; ATP-dependent NMQ uptake, HEK-293/ABCB1 inverted membrane vesicles; '-' = no inhibition
T1 sequence (P08183 whole entry): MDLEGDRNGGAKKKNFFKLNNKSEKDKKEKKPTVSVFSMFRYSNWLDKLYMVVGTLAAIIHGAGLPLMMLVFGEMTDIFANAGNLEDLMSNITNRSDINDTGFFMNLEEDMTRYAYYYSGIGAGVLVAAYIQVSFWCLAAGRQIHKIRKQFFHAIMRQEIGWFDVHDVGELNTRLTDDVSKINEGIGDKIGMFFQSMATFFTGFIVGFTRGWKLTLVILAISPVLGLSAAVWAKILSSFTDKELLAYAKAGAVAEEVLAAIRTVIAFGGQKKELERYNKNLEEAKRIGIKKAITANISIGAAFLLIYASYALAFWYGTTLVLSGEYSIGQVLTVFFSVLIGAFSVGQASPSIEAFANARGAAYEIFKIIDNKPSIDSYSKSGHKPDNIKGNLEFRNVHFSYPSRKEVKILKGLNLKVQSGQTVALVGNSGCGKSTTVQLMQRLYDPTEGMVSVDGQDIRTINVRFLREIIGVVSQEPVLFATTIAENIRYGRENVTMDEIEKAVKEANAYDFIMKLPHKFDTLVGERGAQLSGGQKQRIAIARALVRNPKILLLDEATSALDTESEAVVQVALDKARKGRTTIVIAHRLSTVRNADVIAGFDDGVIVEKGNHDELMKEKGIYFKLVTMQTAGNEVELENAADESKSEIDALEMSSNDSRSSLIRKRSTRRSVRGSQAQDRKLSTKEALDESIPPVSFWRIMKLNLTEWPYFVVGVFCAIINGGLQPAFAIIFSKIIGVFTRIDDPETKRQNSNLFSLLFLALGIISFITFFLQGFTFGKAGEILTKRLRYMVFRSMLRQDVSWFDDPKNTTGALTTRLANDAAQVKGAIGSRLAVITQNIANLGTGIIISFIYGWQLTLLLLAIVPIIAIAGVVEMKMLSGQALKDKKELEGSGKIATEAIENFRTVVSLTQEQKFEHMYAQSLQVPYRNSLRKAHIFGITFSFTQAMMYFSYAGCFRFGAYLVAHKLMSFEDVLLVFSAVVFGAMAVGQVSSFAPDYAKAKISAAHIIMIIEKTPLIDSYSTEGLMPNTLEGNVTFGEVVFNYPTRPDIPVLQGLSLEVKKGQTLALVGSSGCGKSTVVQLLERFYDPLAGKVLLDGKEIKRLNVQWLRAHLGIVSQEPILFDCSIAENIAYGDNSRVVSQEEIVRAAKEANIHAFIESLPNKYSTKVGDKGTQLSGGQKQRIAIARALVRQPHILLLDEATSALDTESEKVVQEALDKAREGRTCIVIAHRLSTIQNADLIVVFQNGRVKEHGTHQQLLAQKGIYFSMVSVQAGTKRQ

OATP2B1 [3] = molecular target: T2, OATP2B1 (Homo sapiens, UniProt O94956); conditions: read-out: Estimated Transporter Inhibition IC50, OATP2B1 cellular assay; 20 µM pyranine uptake, 15 min, pH 5.5, A431-OATP2B1 cells; '-' = no interaction
T2 sequence (O94956 1-709): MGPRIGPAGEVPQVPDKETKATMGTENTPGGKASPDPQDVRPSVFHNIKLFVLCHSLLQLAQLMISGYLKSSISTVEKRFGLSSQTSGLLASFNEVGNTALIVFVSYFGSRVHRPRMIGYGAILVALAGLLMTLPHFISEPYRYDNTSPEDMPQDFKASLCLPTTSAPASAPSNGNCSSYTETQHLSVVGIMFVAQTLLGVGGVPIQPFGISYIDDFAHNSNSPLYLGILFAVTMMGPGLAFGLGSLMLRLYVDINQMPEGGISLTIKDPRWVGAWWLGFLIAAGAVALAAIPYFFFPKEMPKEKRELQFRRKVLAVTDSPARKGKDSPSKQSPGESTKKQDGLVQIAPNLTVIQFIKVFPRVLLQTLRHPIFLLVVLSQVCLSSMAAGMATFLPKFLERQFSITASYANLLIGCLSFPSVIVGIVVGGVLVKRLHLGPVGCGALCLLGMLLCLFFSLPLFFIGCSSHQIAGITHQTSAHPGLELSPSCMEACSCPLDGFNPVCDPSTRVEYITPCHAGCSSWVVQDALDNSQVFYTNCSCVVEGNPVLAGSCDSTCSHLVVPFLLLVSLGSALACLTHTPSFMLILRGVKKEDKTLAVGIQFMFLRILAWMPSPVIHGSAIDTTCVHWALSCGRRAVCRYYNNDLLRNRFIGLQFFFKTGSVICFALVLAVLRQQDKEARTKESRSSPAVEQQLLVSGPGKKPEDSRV

SARS-CoV-2 = conditions: cited from earlier work
ABCB1/MDR1/Pgp [4] = molecular target: T1, ABCB1/MDR1/Pgp; test: in vitro; conditions: read-out: Estimated Transporter Inhibition IC50, ABCB1 cellular assay; Calcein-AM extrusion, PLB-985/ABCB1 cells; relative to full inhibition by 0.25 µM tariquidar; '-' = no significant inhibition
Method: (§1) For the ABC transporter assays, we used both cell-based and membrane-based functional assays. […] The respective transport activities were assayed by measuring the cellular fluorescence of the respective transported substrates Phengreen (ABCG2) and Calcein (ABCB1 and ABCC1).
The cells were kept on ice until the flow cytometry measurements. All experiments were performed in triplicate and in at least three biological parallels.
(§2) The cells were kept on ice until the flow cytometry measurements. All experiments were performed in triplicate and in at least three biological parallels. […] The PhenGreen (PG) or Calcein signal was detected in the BL1 channel (emission filter: 530/30 nm). Analysis of the data was carried out by the Attune Nxt Cytometer Software v3.1.2 (Thermo Fischer Scientific, Waltham, MA, USA). The inhibition of transporter activity was calculated by comparing the fluorescence in the presence of the test compound to that in the presence of a specific inhibitor providing maximum inhibition. […] Half-maximum inhibition (IC50) values were calculated by using the Origin2019 software (9.6.5.169, OriginLab Corporation, Northampton, MA, USA). […] In these experiments, we measured Hoechst dye extrusion in HeLa cells stably expressing eGFP and the ABCG2 variants driven by the same promoter—the transgenic cells generated by the Sleeping Beauty transposon system. […] For details, see Zámbó et al.). […] The maximum inhibition was defined for each variant as the fluorescence difference of the samples incubated with and without Ko143, respectively. […] Data analysis was performed using the Attune Nxt Cytometer Software v3.1.2. Two samples per condition and three biological replicates were examined in each experiment.
ABCB1 is a high-affinity active efflux transporter of the viability dye Calcein-AM (CaAM). […] Here, we applied this widely used cellular assay (see https://www.solvobiotech.com/services/categories/dye-efflux-assays) to characterize drug interactions of the applied compounds in intact PLB-985 cells, expressing high levels of the ABCB1 protein.

ABCG2/BCRP [5] = molecular target: T3, ABCG2/BCRP (Homo sapiens, UniProt Q9UNQ0); test: in vitro; conditions: read-out: Estimated Transporter Inhibition IC50, ABCG2 vesicular assay; ATP-dependent lucifer yellow uptake, HEK-293/ABCG2 vesicles; relative to 1 µM Ko143; '-' = no inhibition
T3 sequence (Q9UNQ0 1-655): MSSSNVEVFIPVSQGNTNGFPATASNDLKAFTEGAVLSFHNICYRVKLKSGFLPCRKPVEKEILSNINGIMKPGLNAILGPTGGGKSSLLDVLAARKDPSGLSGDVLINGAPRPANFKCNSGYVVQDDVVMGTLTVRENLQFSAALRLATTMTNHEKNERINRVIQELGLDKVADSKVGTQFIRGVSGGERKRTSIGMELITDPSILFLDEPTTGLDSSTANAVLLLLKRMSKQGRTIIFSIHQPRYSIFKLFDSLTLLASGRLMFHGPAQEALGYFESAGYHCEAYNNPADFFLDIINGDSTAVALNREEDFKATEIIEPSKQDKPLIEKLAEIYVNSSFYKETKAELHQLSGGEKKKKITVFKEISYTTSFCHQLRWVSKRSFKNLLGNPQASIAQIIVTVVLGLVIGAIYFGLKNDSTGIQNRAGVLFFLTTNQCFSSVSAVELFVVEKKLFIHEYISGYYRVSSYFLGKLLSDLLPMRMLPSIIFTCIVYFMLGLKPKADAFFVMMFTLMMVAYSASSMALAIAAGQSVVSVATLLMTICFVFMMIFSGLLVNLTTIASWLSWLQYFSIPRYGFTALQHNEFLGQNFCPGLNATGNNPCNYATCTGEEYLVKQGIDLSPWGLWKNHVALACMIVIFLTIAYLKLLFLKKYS
Method: These were employed at 37 °C for 10 min (ABCG2), 1 min (ABCB1), or 3 min (ABCC1), with or without 4 mM Mg-ATP, in a 50 μL final volume. The known reference inhibitors of the transporters (1 µM Ko143 for ABCG2, 1 µM Valspodar for ABCB1, and 200 µM Benzbromarone for ABCC1) served as controls. Each test compound was dissolved in DMSO and a 1 µL volume was added to the samples. After incubation, the samples were filtered and washed, and the substrates in the vesicles were dissolved in 10% SDS and transferred onto another plate. After the addition of a stabilizer, the fluorescence was measured in plate readers (Victor X3 and Enspire Perkin-Elmer, Waltham, MA, USA), while the activity of the radiolabeled substrate was measured by liquid scintillation counting (Perkin Elmer MicroBeta2 liquid scintillation counter, Perkin Elmer, Waltham, MA, USA). ABC transporter-related vesicular transport was calculated by subtracting uptake measured in the presence of Mg-AMP from the values measured in the presence of Mg-ATP.
The effects of the test compounds on ABCG2 activity were also measured in a vesicular transport assay by using inverted membrane vesicles prepared from HEK-293 cells expressing high levels of the ABCG2 transporter.

ABCG2/BCRP [6] = molecular target: T3, ABCG2/BCRP; test: in vitro; conditions: read-out: Estimated Transporter Inhibition IC50, ABCG2 cellular assay; PhenGreen-DA extrusion, PLB-985/ABCG2 cells; relative to 2.5 µM Ko143; '-' = no inhibition
Method: as §1, §2
Here, we used both PhenGreen-SK diacetate and Hst dye for these measurements. The PhenGreen (PG) assay is a recently patented method applied for ensuring an efficient ABCG2 transport measurement, as the non-fluorescent PhenGreen diacetate (PG-DA) is actively extruded by ABCG2 and the cellular fluorescence is correlated with ABCG2 transport activity. Therefore, we applied this assay to characterize the test drug interactions in intact PLB-985 cells expressing high levels of the ABCG2 protein. […] ABCG2 inhibition by the test compounds was estimated by their relative (%) inhibition compared to full inhibition by Ko143.

For ivermectin, the “OATP2B1 inhibition found by Karlgren et al.” value (OATP2B1 [1]) is given as 39%, the IC50 (ABCB1/MDR1/Pgp [2]) is given as 300 nM and the IC50 (OATP2B1 [3]) is given as 8.6 µM. The “Plasma concentrations required to reach an in vitro antiviral efficacy” value (SARS-CoV-2) was 2 to 10 µM, the IC50 (ABCB1/MDR1/Pgp [4]) was 600 nM and the IC50 (ABCG2/BCRP [5]) was 1100 nM. For the same substance, the IC50 (ABCG2/BCRP [6]) was 3.1 µM.
